Data set [1] relates to HePG2 hepatocarcinoma cells. It counts as cell-based. The note with it: human. The method, then: The cells were incubated for 2 h (37° C. and 5% CO2) and allowed to settle and attach. Compounds of interest or DMSO were diluted in DMEM and added at final compound concentrations of 1 μM, 10 μM, and 100 μM. Cells were incubated for 4 hours and 24 hours after which the media was discarded. Cells were lysed by adding 30 μL of passive lysis buffer (Promega) and shaken at RT for 15 min. Cell viability was determined by quantifying the ATP present in each well by adding 10 μL of CellTiter-Glo (Promega) per well and measuring the light output Spectramax L luminometer (Molecular Devices) with an integration time of one second per well. Data was normalized to 100% viability for cells receiving only DMSO without any concurrent compound.

The target in another data set is T1, ALK2 (Homo sapiens, UniProt Q04771, Q207D).
T1 construct: His tag (TEV-cleavable) (N, cleaved yes); made in house; host or cells: Sf9 insect cells (baculovirus)
T1 sequence (Q04771 201-499 Q207D): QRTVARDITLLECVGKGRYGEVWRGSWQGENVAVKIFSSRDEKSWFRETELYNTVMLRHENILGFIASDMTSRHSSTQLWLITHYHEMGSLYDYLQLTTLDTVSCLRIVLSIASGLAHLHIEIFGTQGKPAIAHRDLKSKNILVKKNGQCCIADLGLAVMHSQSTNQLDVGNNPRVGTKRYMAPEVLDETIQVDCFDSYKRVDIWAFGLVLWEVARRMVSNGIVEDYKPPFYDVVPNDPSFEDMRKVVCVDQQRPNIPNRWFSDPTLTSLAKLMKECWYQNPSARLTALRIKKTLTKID
Description: Thermal shift kinase assay ALK2. As to conditions: ALK2 minus ALK5. It is filed as binding. The method, then:
Thermal melting experiments were performed using a Real Time PCR machine Mx3005p (Stratagene) with a protein concentration of 1-2 μM and 10 μM inhibitor as described by Niesen et al., Nat Protoc 2007, 2, 2212-21. Recombinant human kinases for DSF screening were prepared by SGC using the published methods of Sanvitale et al., PLoS One 2013, 8, e62721. The potency and selectivity of certain compounds of the invention based on thermal shift kinase and ligand induced transcriptional activity assays are shown in Table 2.

Read-outs that look alike come from different tables or passages of the source.

Regarding `Cc1cn(-c2cc(NC(=O)c3ccc(C)c(Nc4nccc(-c5cccnc5)n4)c3)cc(C(F)(F)F)c2)cn1` [Nilotinib, reference compound], the Cell viability in data set [1] (4 h, 1 μM) turned out to be 99%; in data set [1] (4 h, 10 μM) it was 106%; in data set [1] (4 h, 100 μM), 105%; in data set [1] (24 h, 1 μM), 100%; in data set [1] (24 h, 10 μM), 101%; in data set [1] (24 h, 100 μM), 91%.

For `C#Cc1cccc(Nc2ncnc3cc(OCCOC)c(OCCOC)cc23)c1` [Erlotinib, reference compound], the Cell viability in data set [1] (4 h, 1 μM) turned out to be 96%; in data set [1] (4 h, 10 μM), 107%; in data set [1] (4 h, 100 μM), 108%; in data set [1] (24 h, 1 μM), 99%; in data set [1] (24 h, 10 μM), 84%; in data set [1] (24 h, 100 μM) it was 84%.

As to `CS(=O)(=O)CCNCc1ccc(-c2ccc3ncnc(Nc4ccc(OCc5cccc(F)c5)c(Cl)c4)c3c2)o1` [Lapatinib, reference compound], the Cell viability is on record as 100% in data set [1] (4 h, 1 μM); 104% in data set [1] (4 h, 10 μM); 104% in data set [1] (4 h, 100 μM); 98% in data set [1] (24 h, 1 μM); 92% in data set [1] (24 h, 10 μM); 89% in data set [1] (24 h, 100 μM).

Take `COc1cc(-c2cc(-c3ccc(N4CCNCC4)cc3)cnc2N)ccc1C` [Compound 23, 3-(3-methoxy-4-methylphenyl)-5-(4-(piperazin-1-yl)phenyl)pyridin-2-amine]: the ΔTmDiff. at ALK2 is reported as 3.8. The Cell viability in data set [1] (4 h, 1 μM) amounted to 95%; in data set [1] (4 h, 10 μM) it was 101%; in data set [1] (24 h, 1 μM), 98%; in data set [1] (24 h, 10 μM), 86%.

Consider `COc1cccc(-c2cc(-c3ccc(N4CCNCC4)cc3)cnc2N)c1` [Compound 18, 3-(3-methoxyphenyl)-5-(4-(piperazin-1-yl)phenyl)pyridin-2-amine], for which the ΔTmDiff. at ALK2 was found to be 3.8. Further, the Cell viability in data set [1] (4 h, 1 μM) was 98%; in data set [1] (4 h, 10 μM), 101%; in data set [1] (4 h, 100 μM), 106%; in data set [1] (24 h, 1 μM), 103%; in data set [1] (24 h, 10 μM) it was 100%.

`COc1ccc(-c2cc(-c3ccc(N4CCNCC4)cc3)cnc2N)cc1OC` [Compound 16, 3-(3,4-dimethoxyphenyl)-5-(4-(piperazin-1-yl)phenyl)pyridin-2-amine]: at ALK2, the ΔTmDiff. amounted to 4.3.

For `N#CC[C@H](C1CCCC1)n1cc(-c2ncnc3[nH]ccc23)cn1` [Ruxolitinib, reference compound], the Cell viability was determined as 101% in data set [1] (4 h, 1 μM); 105% in data set [1] (4 h, 10 μM); 88% in data set [1] (4 h, 100 μM); 100% in data set [1] (24 h, 1 μM); 90% in data set [1] (24 h, 10 μM).

`CCCS(=O)(=O)Nc1ccc(F)c(C(=O)c2c[nH]c3ncc(-c4ccc(Cl)cc4)cc23)c1F` [Vemurafenib, reference compound]: the Cell viability is 103% in data set [1] (4 h, 1 μM); 100% in data set [1] (4 h, 10 μM); 102% in data set [1] (4 h, 100 μM); 95% in data set [1] (24 h, 1 μM); 77% in data set [1] (24 h, 10 μM).

As to `Cc1nc(Nc2ncc(C(=O)Nc3c(C)cccc3Cl)s2)cc(N2CCN(CCO)CC2)n1` [Dasatinib, reference compound], the Cell viability in data set [1] (4 h, 1 μM) came out at 94%; in data set [1] (4 h, 10 μM) it was 107%; in data set [1] (24 h, 1 μM), 87%.

For `CCN(CC)CCNC(=O)c1c(C)[nH]c(/C=C2\C(=O)Nc3ccc(F)cc32)c1C` [Sunitinib, reference compound], the Cell viability in data set [1] (4 h, 1 μM) is on record as 97%; in data set [1] (4 h, 10 μM) it was 107%; in data set [1] (24 h, 1 μM) it was 96%.

Turning to `COc1cc2ncnc(Nc3ccc(F)c(Cl)c3)c2cc1OCCCN1CCOCC1` [Gefitinib, reference compound], the Cell viability is listed as 93% in data set [1] (4 h, 1 μM); 105% in data set [1] (4 h, 10 μM); 104% in data set [1] (4 h, 100 μM); 98% in data set [1] (24 h, 1 μM); 82% in data set [1] (24 h, 10 μM); 85% in data set [1] (24 h, 100 μM).

(Values after patent publication US20170190705A1, “Compositions and Methods for Inhibiting BMP” (THE BRIGHAM AND WOMAN'S HOSPITAL, INC., priority 2014, published 2017).)
